The values below come from patent US20070259087A1, “Antimicrobial Peptides” (Novozymes A/S, priority 2003, published 2007).

In this assay the test system is E. coli TOP10. The assay is classed as cell-based. Particulars: end point OD450 after 14 hours, 37 degrees Celsius. On the procedure: A range of synthetic antimicrobial polypeptides were expressed in E. coli TOP10 (Invitrogen) using arabinose as inducer, as disclosed in Example 1 of International patent application WO 00/73433 (with minor modifications). […] Briefly, fresh overnight cultures grown in RM medium containing 0.2% glucose and ampicillin (100 μg/ml) were diluted 300-fold into 150 microliter of RM containing 0.2% glycerol and ampicillin (100 μg/ml) and different concentrations of arabinose (0, 0.01% or 0.1%) in a microtiter plate and incubated at 37 degrees Celsius with vigorous shaking. The growth curve was monitored by measuring OD450 using a Bioscreen C Microbiology reader (Thermo Electron Corporation) at intervals of 30 minutes for 14 hours (see Invitrogen protocol of the pBAD/gill A, B and C vectors catalogue nos. V450-01 for buffer and media composition). The percentage of growth inhibition was calculated as the end point OD measurement of each sample divided by the end point OD measurement obtained from cells containing the control vector and multiplied by 100. The formula is the following: [formula] where “blank OD” corresponds to the OD of an empty well.

In the case of “GLLSKIMKAVKRTLKHIL (Synthetic antimicrobial peptide) [SEQ ID NO:16]”, the “Growth inhibition using 0.01% arabinose (%)” value is on record as 89% and the “Growth inhibition using 0.1% arabinose (%)” value is 99%.

With “GLLRKIKMKAKKVLKNIL (Synthetic antimicrobial peptide) [SEQ ID NO:22]”, the “Growth inhibition using 0.01% arabinose (%)” value was 72% and the “Growth inhibition using 0.1% arabinose (%)” value is 83%.

“GLLRKLGKKIKRVVKHVG (Synthetic antimicrobial peptide) [SEQ ID NO:10]”: the “Growth inhibition using 0.01% arabinose (%)” value was determined as 98% and the “Growth inhibition using 0.1% arabinose (%)” value is given as 100%.

As to “GILNIIGRAVKTVLESIR (Synthetic antimicrobial peptide) [SEQ ID NO:25]”, the “Growth inhibition using 0.01% arabinose (%)” value came to 97% and the “Growth inhibition using 0.1% arabinose (%)” value was 99%.

In the case of “GLLSKIRKKLKRVLQSIR (Synthetic antimicrobial peptide) [SEQ ID NO:20]”, the “Growth inhibition using 0.01% arabinose (%)” value is reported as 77% and the “Growth inhibition using 0.1% arabinose (%)” value worked out at 94%.

Turning to “GLLGKLKKELKNVLEHIYRWL (Synthetic antimicrobial peptide) [SEQ ID NO:42]”, the “Growth inhibition using 0.01% arabinose (%)” value amounted to 75% and the “Growth inhibition using 0.1% arabinose (%)” value turned out to be 93%.

With “GMLRKLKRKVKRTLQHVL (Synthetic antimicrobial peptide) [SEQ ID NO:8]”, the “Growth inhibition using 0.01% arabinose (%)” value is on record as 78% and the “Growth inhibition using 0.1% arabinose (%)” value amounted to 88%.

As to “GMLSKLGITIKIAVKHIR (Synthetic antimicrobial peptide) [SEQ ID NO:6]”, the “Growth inhibition using 0.01% arabinose (%)” value is reported as 98% and the “Growth inhibition using 0.1% arabinose (%)” value was found to be 100%.

Regarding “GLFTKLRKATKRILEHVL (Synthetic antimicrobial peptide) [SEQ ID NO:3]”, the “Growth inhibition using 0.01% arabinose (%)” value amounted to 81% and the “Growth inhibition using 0.1% arabinose (%)” value worked out at 87%.

For the sequence “GMLKKLKKKTKRAFSVFCRWL (Synthetic antimicrobial peptide) [SEQ ID NO:44]”, the “Growth inhibition using 0.01% arabinose (%)” value was 96% and the “Growth inhibition using 0.1% arabinose (%)” value is given as 98%.

In the case of “GLLGKLKRKIKKALEGIR (Synthetic antimicrobial peptide) [SEQ ID NO:35]”, the “Growth inhibition using 0.01% arabinose (%)” value was found to be 96% and the “Growth inhibition using 0.1% arabinose (%)” value is given as 99%.

For the sequence “GLFRKLKKTIKRVLKHVP (Synthetic antimicrobial peptide) [SEQ ID NO:31]”, the “Growth inhibition using 0.01% arabinose (%)” value is given as 86% and the “Growth inhibition using 0.1% arabinose (%)” value is 96%.

With “GLLNKLKKNVKNIVQHILRWL (Synthetic antimicrobial peptide) [SEQ ID NO:40]”, the “Growth inhibition using 0.01% arabinose (%)” value is 77% and the “Growth inhibition using 0.1% arabinose (%)” value was 95%.

“GLFSLLRKTIKKVLQHIR (Synthetic antimicrobial peptide) [SEQ ID NO:32]”: the “Growth inhibition using 0.01% arabinose (%)” value was 91% and the “Growth inhibition using 0.1% arabinose (%)” value came out at 99%.

In the case of “GWLRKIGKAVKKVVKRVL (Synthetic antimicrobial peptide) [SEQ ID NO:34]”, the “Growth inhibition using 0.01% arabinose (%)” value amounted to 90% and the “Growth inhibition using 0.1% arabinose (%)” value is on record as 99%.

Take “GLLSRLRRATKIILKGIR (Synthetic antimicrobial peptide) [SEQ ID NO:14]”: the “Growth inhibition using 0.01% arabinose (%)” value is on record as 72% and the “Growth inhibition using 0.1% arabinose (%)” value turned out to be 88%.

In the case of “GWFSKLKKTAKKLLQRVL (Synthetic antimicrobial peptide) [SEQ ID NO:7]”, the “Growth inhibition using 0.01% arabinose (%)” value was determined as 76% and the “Growth inhibition using 0.1% arabinose (%)” value is reported as 82%.

With “GWLKILEKAAKITVKNVL (Synthetic antimicrobial peptide) [SEQ ID NO:36]”, the “Growth inhibition using 0.01% arabinose (%)” value was determined as 98% and the “Growth inhibition using 0.1% arabinose (%)” value was 97%.

As to “GLLRILKKKAKKALQHIL (Synthetic antimicrobial peptide) [SEQ ID NO:37]”, the “Growth inhibition using 0.01% arabinose (%)” value amounted to 86% and the “Growth inhibition using 0.1% arabinose (%)” value was determined as 93%.
